# Laboratory results as given in the NIST ThermoML archive (doi:10.1021/acs.jced.6b00269).
# ± gives the expanded uncertainty stated by the source.
# Settings: for viscosity / mass density: 101.33 kPa, Liquid; for viscosity: Cone and plate viscometry; for mass density: Vibrating tube method; for Glass transition temperature: DSC; for Normal melting temperature: Crystal, DTA
Compound,viscosity (278.15 K),viscosity (283.15 K),mass density (283.15 K),viscosity (288.15 K),mass density (288.15 K),viscosity (293.15 K),mass density (293.15 K),mass density (295.15 K),viscosity (298.15 K),mass density (298.15 K),viscosity (303.15 K),mass density (303.15 K),viscosity (308.15 K),mass density (308.15 K),viscosity (313.15 K),mass density (313.15 K),mass density (318.15 K),mass density (323.15 K),mass density (328.15 K),mass density (333.15 K),further results
"CCC[n+]1ccn(C)c1C.O=[N+]([O-])c1cn[n-]c1 [1,2-dimethyl-3-propylimidazolium 4-nitropyrazolide]",9610 ± 1100 mPa·s,4500 ± 500 mPa·s,1193 ± 7.7 kg/m3,2270 ± 230 mPa·s,1189.4 ± 7.7 kg/m3,1240 ± 110 mPa·s,1185.6 ± 7.6 kg/m3,1184.3 ± 7.6 kg/m3,722 ± 61 mPa·s,1182.2 ± 7.6 kg/m3,447 ± 35 mPa·s,1178.9 ± 7.6 kg/m3,294 ± 22 mPa·s,1175.5 ± 7.5 kg/m3,200 ± 10 mPa·s,1172.2 ± 7.5 kg/m3,1168.9 ± 7.4 kg/m3,1165.7 ± 7.4 kg/m3,1162.5 ± 7.3 kg/m3,1159.3 ± 7.3 kg/m3,viscosity (318.15 K): 143 ± 10 mPa·s; viscosity (323.15 K): 106 ± 7 mPa·s; viscosity (328.15 K): 81 ± 5 mPa·s; viscosity (333.15 K): 65 ± 4 mPa·s; viscosity (338.15 K): 53 ± 4 mPa·s; mass density (338.15 K): 1156.1 ± 7.3 kg/m3; mass density (343.15 K): 1152.8 ± 7.2 kg/m3; mass density (348.15 K): 1149.6 ± 7.2 kg/m3; mass density (353.15 K): 1146.4 ± 7.1 kg/m3; Glass transition temperature: -50 ± 2 °C
"CCC=Cn1cc[n+](C)c1C.O=[N+]([O-])c1cn[n-]c1 [1-but-1-enyl-2,3-dimethylimidazolium 4-nitropyrazolide]",6650 ± 750 mPa·s,3260 ± 340 mPa·s,1191.5 ± 7.7 kg/m3,1720 ± 170 mPa·s,1187.7 ± 7.7 kg/m3,973 ± 86 mPa·s,1184.2 ± 7.6 kg/m3,1182.8 ± 7.6 kg/m3,590 ± 48 mPa·s,1180.8 ± 7.6 kg/m3,380 ± 29 mPa·s,1177.5 ± 7.5 kg/m3,255 ± 19 mPa·s,1174.1 ± 7.5 kg/m3,179 ± 13 mPa·s,1170.8 ± 7.5 kg/m3,1167.6 ± 7.4 kg/m3,1164.4 ± 7.4 kg/m3,1161.1 ± 7.3 kg/m3,1157.9 ± 7.3 kg/m3,viscosity (318.15 K): 131 ± 9 mPa·s; viscosity (323.15 K): 99 ± 7 mPa·s; viscosity (328.15 K): 77 ± 5 mPa·s; viscosity (333.15 K): 62 ± 4 mPa·s; viscosity (338.15 K): 50 ± 3 mPa·s; mass density (338.15 K): 1154.7 ± 7.2 kg/m3; mass density (343.15 K): 1151.5 ± 7.2 kg/m3; mass density (348.15 K): 1148.3 ± 7.2 kg/m3; mass density (353.15 K): 1145.2 ± 7.1 kg/m3; Glass transition temperature: -53 ± 2 °C
CCCC[n+]1cccn1C.O=S(=O)([N-]S(=O)(=O)C(F)(F)F)C(F)(F)F [1-butyl-2-methylpyrazolium bis(trifluoromethylsulfonyl)imide],214 ± 15 mPa·s,155 ± 11 mPa·s,1465.4 ± 12 kg/m3,116 ± 8 mPa·s,1460.7 ± 12 kg/m3,88 ± 6 mPa·s,1456 ± 12 kg/m3,1454.06 ± 12 kg/m3,70 ± 5 mPa·s,1451.2 ± 12 kg/m3,55 ± 4 mPa·s,1446.5 ± 11 kg/m3,,1441.8 ± 11 kg/m3,,1437.1 ± 11 kg/m3,1432.4 ± 11 kg/m3,1427.7 ± 11 kg/m3,1423 ± 11 kg/m3,1418.4 ± 11 kg/m3,mass density (338.15 K): 1413.8 ± 11 kg/m3; mass density (343.15 K): 1409.1 ± 11 kg/m3; mass density (348.15 K): 1404.6 ± 11 kg/m3; mass density (353.15 K): 1400 ± 11 kg/m3; Glass transition temperature: -82 ± 2 °C
CCCC[S+]1CCCCC1.O=S(=O)([N-]S(=O)(=O)C(F)(F)F)C(F)(F)F [1-butylthianium bis(trifluoromethylsulfonyl)imide],398 ± 30 mPa·s,279 ± 21 mPa·s,,200 ± 10 mPa·s,,148 ± 10 mPa·s,,,112 ± 8 mPa·s,,88 ± 6 mPa·s,,70 ± 5 mPa·s,,57 ± 4 mPa·s,,,,,,Normal melting temperature: -10 ± 2 °C; Glass transition temperature: -82 ± 2 °C
"Cc1n(C2CCCC2)cc[n+]1C.O=[N+]([O-])c1cn[n-]c1 [1-cyclopentyl-2,3-dimethylimidazolium 4-nitropyrazolide]",,,,,,,,,,,,,,,,,,,,,Normal melting temperature: 92 ± 2 °C
"CCCCCCn1cc[n+](C)c1C.O=[N+]([O-])c1cn[n-]c1 [1-hexyl-2,3-dimethylimidazolium 4-nitropyrazolide]",14600 ± 1800 mPa·s,6910 ± 800 mPa·s,1129.4 ± 6.9 kg/m3,3490 ± 370 mPa·s,1126 ± 6.9 kg/m3,1910 ± 180 mPa·s,1122.4 ± 6.8 kg/m3,1121 ± 6.8 kg/m3,1110 ± 100 mPa·s,1118.9 ± 6.8 kg/m3,691 ± 58 mPa·s,1115.7 ± 6.8 kg/m3,450 ± 35 mPa·s,1112.4 ± 6.7 kg/m3,303 ± 23 mPa·s,1109.2 ± 6.7 kg/m3,1106 ± 6.6 kg/m3,1102.8 ± 6.6 kg/m3,1099.7 ± 6.6 kg/m3,1096.6 ± 6.5 kg/m3,viscosity (318.15 K): 213 ± 15 mPa·s; viscosity (323.15 K): 147 ± 10 mPa·s; viscosity (328.15 K): 112 ± 8 mPa·s; viscosity (333.15 K): 87 ± 6 mPa·s; viscosity (338.15 K): 69 ± 5 mPa·s; mass density (338.15 K): 1093.5 ± 6.5 kg/m3; viscosity (343.15 K): 56 ± 4 mPa·s; mass density (343.15 K): 1090.4 ± 6.4 kg/m3; mass density (348.15 K): 1087.4 ± 6.4 kg/m3; mass density (353.15 K): 1084.3 ± 6.4 kg/m3; Glass transition temperature: -47 ± 2 °C
CCCCCCn1cc[n+](C)c1.N#Cc1ccc[n-]1 [1-hexyl-3-methylimidazolium 2-cyanopyrrolide],1540 ± 140 mPa·s,902 ± 78 mPa·s,1031 ± 5.7 kg/m3,553 ± 45 mPa·s,1027.9 ± 5.7 kg/m3,355 ± 27 mPa·s,1024.9 ± 5.7 kg/m3,1023.6 ± 5.7 kg/m3,239 ± 17 mPa·s,1021.8 ± 5.6 kg/m3,167 ± 12 mPa·s,1018.8 ± 5.6 kg/m3,122 ± 8 mPa·s,1015.8 ± 5.6 kg/m3,91 ± 6 mPa·s,1012.8 ± 5.5 kg/m3,1009.9 ± 5.5 kg/m3,1006.9 ± 5.5 kg/m3,1003.9 ± 5.4 kg/m3,1001 ± 5.4 kg/m3,viscosity (318.15 K): 70 ± 5 mPa·s; viscosity (323.15 K): 55 ± 4 mPa·s; mass density (338.15 K): 998 ± 5.4 kg/m3; mass density (343.15 K): 995.1 ± 5.3 kg/m3; mass density (348.15 K): 992.1 ± 5.3 kg/m3; mass density (353.15 K): 989.1 ± 5.3 kg/m3; Glass transition temperature: -65 ± 2 °C
CCCCCCn1cc[n+](C)c1.O=[N+]([O-])c1cn[n-]c1 [1-hexyl-3-methylimidazolium 4-nitropyrazolide],3310 ± 340 mPa·s,1810 ± 170 mPa·s,1133.6 ± 7 kg/m3,1040 ± 92 mPa·s,1130 ± 6.9 kg/m3,633 ± 52 mPa·s,1126.6 ± 6.9 kg/m3,1125.3 ± 6.9 kg/m3,407 ± 32 mPa·s,1123.3 ± 6.8 kg/m3,275 ± 20 mPa·s,1120 ± 6.8 kg/m3,192 ± 14 mPa·s,1116.6 ± 6.8 kg/m3,139 ± 10 mPa·s,1113.4 ± 6.7 kg/m3,1110.2 ± 6.7 kg/m3,1107 ± 6.6 kg/m3,1103.8 ± 6.6 kg/m3,1100.6 ± 6.6 kg/m3,viscosity (318.15 K): 102 ± 7 mPa·s; viscosity (323.15 K): 79 ± 5 mPa·s; viscosity (328.15 K): 63 ± 4 mPa·s; viscosity (333.15 K): 51 ± 3 mPa·s; mass density (338.15 K): 1097.4 ± 6.5 kg/m3; mass density (343.15 K): 1094.2 ± 6.5 kg/m3; mass density (348.15 K): 1091.1 ± 6.5 kg/m3; mass density (353.15 K): 1087.9 ± 6.4 kg/m3; Normal melting temperature: 33 ± 2 °C; Glass transition temperature: -56 ± 2 °C
CC(=O)[O-].CCCCCCn1cc[n+](C)c1 [3-hexyl-1-methylimidazolium acetate],12300 ± 1500 mPa·s,6460 ± 740 mPa·s,1025.7 ± 5.7 kg/m3,3550 ± 370 mPa·s,1022.7 ± 5.7 kg/m3,2060 ± 200 mPa·s,1019.6 ± 5.6 kg/m3,1018.4 ± 5.6 kg/m3,1270 ± 120 mPa·s,1016.6 ± 5.6 kg/m3,816 ± 69 mPa·s,1013.5 ± 5.5 kg/m3,537 ± 43 mPa·s,1010.4 ± 5.5 kg/m3,372 ± 28 mPa·s,1007.4 ± 5.5 kg/m3,1004.5 ± 5.4 kg/m3,1001.5 ± 5.4 kg/m3,998.5 ± 5.4 kg/m3,995.5 ± 5.3 kg/m3,viscosity (318.15 K): 265 ± 19 mPa·s; viscosity (323.15 K): 194 ± 14 mPa·s; viscosity (328.15 K): 147 ± 10 mPa·s; viscosity (333.15 K): 113 ± 8 mPa·s; viscosity (338.15 K): 90 ± 6 mPa·s; mass density (338.15 K): 992.6 ± 5.3 kg/m3; mass density (343.15 K): 989.6 ± 5.3 kg/m3; mass density (348.15 K): 986.7 ± 5.3 kg/m3; mass density (353.15 K): 983.7 ± 5.2 kg/m3
